Our source for the EC50 values is patent publication US20240018133A1, “MODULATORS OF THE INTEGRATED STRESS PATHWAY” (Calico Life Sciences LLC, priority 2019, published 2024).

By EC50 is commonly meant the concentration that produces a half-maximal response.

The structures appear in SMILES notation. Some results are limits rather than exact numbers.

For this assay, the system named is ATF4 luciferase reporter (human full-length ATF4 5'-UTR fused to firefly luciferase) in HEK293T cells. In words: ATF4-Luc assay (in vitro model of VWMD): HEK293T cells carrying ATF4 luciferase reporter, tunicamycin-treated. In kind it is cell-based. To be noted: Homo sapiens, HEK-293T, 1 μg/mL tunicamycin, 7 hours, One Glo luminescence. The method, boiled down:
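Stable HEK293T line with human ATF4 5′-UTR–firefly luciferase reporter treated with 1 μg/mL tunicamycin plus 200 nM compound for 7 h. Luminescence read; EC50 derived.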
Background: In a reporter assay the amount or activity of a reporter protein is the signal.
With `O=C(NC12CC(NC(=O)C3CC(O)c4cc(Cl)ccc4O3)(C1)C2)c1cnc(C(F)F)cn1` (stereo not drawn) [Compound 213, N-{3-[(6-chloro-4-hydroxy-3,4-dihydro-2H-1-benzopyran-2-carbonyl)amino]bicyclo[1.1.1]pentan-1-yl}-5-(difluoromethyl)pyrazine-2-carboxamide], the EC50 lay within 10 to 50 nM.
Under `Cc1ccc2oc(C(=O)NC34CC(NC(=O)COc5ccc(Cl)c(F)c5)(C3)C4)cc(=O)c2c1` [Compound 341, N-{3-[2-(4-chloro-3-fluorophenoxy)acetamido]bicyclo[1.1.1]pentan-1-yl}-6-methyl-4-oxo-4H-1-benzopyran-2-carboxamide] stands less than 10 nM; under `Cc1ccc2c(c1)C(O)CC(C(=O)NC13CC(NC(=O)COc4ccc(Cl)c(F)c4)(C1)C3)O2` (stereo not drawn) [Compound 254, N-{3-[2-(4-chloro-3-fluorophenoxy)acetamido]bicyclo[1.1.1]pentan-1-yl}-4-hydroxy-6-methyl-3,4-dihydro-2H-1-benzopyran-2-carboxamide], less than 10 nM; under `COc1ccc2oc(C(=O)NC34CC(NC(=O)COc5ccc(Cl)c(F)c5)(C3)C4)cc(=O)c2n1` [Compound 322, N-{3-[2-(4-chloro-3-fluorophenoxy)acetamido]bicyclo[1.1.1]pentan-1-yl}-6-methoxy-4-oxo-4H-pyrano[3,2-b]pyridine-2-carboxamide], 50 to 250 nM.
The value for `O=C(COc1ccc(Cl)c(F)c1)NC12CC(NC(=O)C3CC(O)c4ccc(Cl)cc4O3)(C1)C2` (stereo not drawn) [Compound 247, 7-chloro-N-{3-[2-(4-chloro-3-fluorophenoxy)acetamido]bicyclo[1.1.1]pentan-1-yl}-4-hydroxy-3,4-dihydro-2H-1-benzopyran-2-carboxamide] was less than 10 nM.
As to `O=C(COc1ccc(Cl)c(Cl)c1)NC12CC(NC(=O)[C@H]3C[C@@H](O)c4cc(F)c(F)cc4O3)(C1)C2` [Compound 207, (2R,4R)—N-{3-[2-(3,4-dichlorophenoxy)acetamido]bicyclo[1.1.1]pentan-1-yl}-6,7-difluoro-4-hydroxy-3,4-dihydro-2H-1-benzopyran-2-carboxamide], the EC50 is less than 10 nM.
Under `O=C(COc1cnc(C(F)(F)F)nc1)NC12CC(NC(=O)[C@H]3CC(=O)c4cc(Cl)ccc4O3)(C1)C2` [Compound 329, (2R)-6-chloro-4-oxo-N-[3-(2-{[2-(trifluoromethyl)pyrimidin-5-yl]oxy}acetamido)bicyclo[1.1.1]pentan-1-yl]-3,4-dihydro-2H-1-benzopyran-2-carboxamide] stands 50 to 250 nM; under `Cc1cc(Cl)cc2c(=O)cc(C(=O)NC34CC(NC(=O)COc5ccc(Cl)c(F)c5)(C3)C4)oc12` [Compound 282, 6-chloro-N-{3-[2-(4-chloro-3-fluorophenoxy)acetamido]bicyclo[1.1.1]pentan-1-yl}-8-methyl-4-oxo-4H-1-benzopyran-2-carboxamide], more than 2000 nM; under `O=C(NC12CC(NC(=O)[C@H]3C[C@@H](O)c4cc(Cl)ccc4O3)(C1)C2)c1cnc(C(F)F)cn1` (racemic) [Compound 218, N-(3-{[rac-(2R,4R)-6-chloro-4-hydroxy-3,4-dihydro-2H-1-benzopyran-2-carbonyl]amino}bicyclo[1.1.1]pentan-1-yl)-5-(difluoromethyl)pyrazine-2-carboxamide], 10 to 50 nM.
The value for `COc1ccc2c(n1)[C@H](O)C[C@H](C(=O)NC13CC(NC(=O)COc4ccc(Cl)c(F)c4)(C1)C3)O2` (racemic) [Compound 334, rac-(2R,4R)—N-{3-[2-(4-chloro-3-fluorophenoxy)acetamido]bicyclo[1.1.1]pentan-1-yl}-4-hydroxy-6-methoxy-3,4-dihydro-2H-pyrano[3,2-b]pyridine-2-carboxamide] was 50 to 250 nM.
Under `COC1CC(C(=O)NC23CC(NC(=O)COc4ccc(Cl)c(F)c4)(C2)C3)Oc2ccc(F)cc21` (stereo not drawn) [Compound 330, N-{3-[2-(4-chloro-3-fluorophenoxy)acetamido]bicyclo[1.1.1]pentan-1-yl}-6-fluoro-4-methoxy-3,4-dihydro-2H-1-benzopyran-2-carboxamide] stands 50 to 250 nM; under `CN1CC(C(=O)NC23CC(NC(=O)COc4ccc(Cl)c(F)c4)(C2)C3)Oc2ccc(Cl)cc21` (stereo not drawn) [Compound 112, 6-chloro-N-{3-[2-(4-chloro-3-fluorophenoxy)acetamido]bicyclo[1.1.1]pentan-1-yl}-4-methyl-3,4-dihydro-2H-1,4-benzoxazine-2-carboxamide], less than 10 nM.
For `O=C(NC12CC(NC(=O)[C@H]3C[C@@H](O)c4cc(Cl)ccc4O3)(C1)C2)c1cnc(C2CCC2)o1` [Compound 387, N-(3-{[(2R,4R)-6-chloro-4-hydroxy-3,4-dihydro-2H-1-benzopyran-2-carbonyl]amino}bicyclo[1.1.1]pentan-1-yl)-2-cyclobutyl-1,3-oxazole-5-carboxamide], the 50% effective concentration (EC50) is 50 to 250 nM.
Under `Cc1cnc(C(=O)NC23CC(NC(=O)[C@H]4C[C@@H](O)c5cc(Cl)ccc5O4)(C2)C3)cn1` [Compound 382, N-(3-{[(2R,4R)-6-chloro-4-hydroxy-3,4-dihydro-2H-1-benzopyran-2-carbonyl]amino}bicyclo[1.1.1]pentan-1-yl)-5-methylpyrazine-2-carboxamide] stands 50 to 250 nM; under `O=C(NC12CC(NC(=O)[C@H]3C[C@@H](O)c4cc(Cl)ccc4O3)(C1)C2)c1cnn(-c2ccc(C(F)(F)F)nc2)c1` [Compound 392, N-(3-{[(2R,4R)-6-chloro-4-hydroxy-3,4-dihydro-2H-1-benzopyran-2-carbonyl]amino}bicyclo[1.1.1]pentan-1-yl)-1-[6-(trifluoromethyl)pyridin-3-yl]-1H-pyrazole-4-carboxamide], 500 to 2000 nM; under `O=C(NC12CCC(NC(=O)C3CC(=O)c4cc(Cl)ccc4O3)(CC1)CC2)c1cnc(C(F)F)cn1` (stereo not drawn) [Compound 304, N-{4-[(6-chloro-4-oxo-3,4-dihydro-2H-1-benzopyran-2-carbonyl)amino]bicyclo[2.2.2]octan-1-yl}-5-(difluoromethyl)pyrazine-2-carboxamide], 500 to 2000 nM.
Turning to `O=C(COc1ccc(Cl)c(F)c1)NC12CCC(NC(=O)[C@@H]3C[C@H](O)c4cc(Cl)ccc4O3)(CC1)CC2` [Compound 306, (2S,4S)-6-chloro-N-{4-[2-(4-chloro-3-fluorophenoxy)acetamido]bicyclo[2.2.2]octan-1-yl}-4-hydroxy-3,4-dihydro-2H-1-benzopyran-2-carboxamide], the concentration giving a half-maximal response (EC50) lay within 10 to 50 nM.
Take `Cc1ncc(C(=O)NC23CC(NC(=O)[C@H]4C[C@@H](O)c5cc(Cl)ccc5O4)(C2)C3)s1` [Compound 385, N-(3-{[(2R,4R)-6-chloro-4-hydroxy-3,4-dihydro-2H-1-benzopyran-2-carbonyl]amino}bicyclo[1.1.1]pentan-1-yl)-2-methyl-1,3-thiazole-5-carboxamide]: the EC50 was 50 to 250 nM.
Under `O=C(COc1ccc(Cl)c(F)c1)NC12CC(NC(=O)C3CC(NC4(CO)CC4)c4cc(Cl)ccc4O3)(C1)C2` (stereo not drawn) [Compound 339, 6-chloro-N-{3-[2-(4-chloro-3-fluorophenoxy)acetamido]bicyclo[1.1.1]pentan-1-yl}-4-{[1-(hydroxymethyl)cyclopropyl]amino}-3,4-dihydro-2H-1-benzopyran-2-carboxamide] stands 10 to 50 nM; under `O=C(COc1ccc(Cl)c(F)c1)NC12CC(NC(=O)[C@@H]3C[C@H](NCC(F)(F)F)c4cc(Cl)ccc4O3)(C1)C2` [Compound 319, (2S,4S)-6-chloro-N-{3-[2-(4-chloro-3-fluorophenoxy)acetamido]bicyclo[1.1.1]pentan-1-yl}-4-[(2,2,2-trifluoroethyl)amino]-3,4-dihydro-2H-1-benzopyran-2-carboxamide], 50 to 250 nM; under `O=C(COc1ccc(Cl)c(F)c1)NC12CC(NC(=O)c3cc(=O)c4cc(Cl)ccc4o3)(C1)C2` [Compound 318, 6-chloro-N-{3-[2-(4-chloro-3-fluorophenoxy)acetamido]bicyclo[1.1.1]pentan-1-yl}-4-oxo-4H-1-benzopyran-2-carboxamide], less than 10 nM.
Under `O=C(COc1ccc(Cl)c(F)c1)NC12CC(NC(=O)C3CC(N[C@H]4C[C@@H](O)C4)c4cc(Cl)ccc4O3)(C1)C2` (mixture of isomers) [Compound 209, 6-chloro-N-{3-[2-(4-chloro-3-fluorophenoxy)acetamido]bicyclo[1.1.1]pentan-1-yl}-4-{[(1s,3s)-3-hydroxycyclobutyl]amino}-3,4-dihydro-2H-1-benzopyran-2-carboxamide] stands 50 to 250 nM.
Under `Cc1cc2c(cc1F)[C@H](O)C[C@H](C(=O)NC13CC(NC(=O)COc4ccc(Cl)c(F)c4)(C1)C3)O2` (single isomer, unassigned) [Compound 241] stands less than 10 nM; under `O=C(COc1ccc(Cl)c(F)c1)NC12CC(NC(=O)[C@H]3C[C@@H](O)c4cc(Cl)c(F)cc4O3)(C1)C2` [Compound 264, (2R,4R)-6-chloro-N-{3-[2-(4-chloro-3-fluorophenoxy)acetamido]bicyclo[1.1.1]pentan-1-yl}-7-fluoro-4-hydroxy-3,4-dihydro-2H-1-benzopyran-2-carboxamide], less than 10 nM.
On to `O=C(COc1ccc(F)c(F)c1)NC12CC(NC(=O)[C@@H]3C[C@H](O)c4cc(Cl)ccc4O3)(C1)C2` [Compound 278, (2S,4S)-6-chloro-N-{3-[2-(3,4-difluorophenoxy)acetamido]bicyclo[1.1.1]pentan-1-yl}-4-hydroxy-3,4-dihydro-2H-1-benzopyran-2-carboxamide], for which the EC50 was 10 to 50 nM.
Under `COc1cc2oc(C(=O)NC34CC(NC(=O)COc5ccc(Cl)c(F)c5)(C3)C4)cc(=O)c2cc1OC` [Compound 221, N-{3-[2-(4-chloro-3-fluorophenoxy)acetamido]bicyclo[1.1.1]pentan-1-yl}-6,7-dimethoxy-4-oxo-4H-1-benzopyran-2-carboxamide] stands more than 2000 nM.
The value for `Cc1cc(OCC(=O)NC23CC(NC(=O)[C@@H]4C[C@H](O)c5cc(Cl)ccc5O4)(C2)C3)ccc1F` [Compound 360, (2S,4S)-6-chloro-N-{3-[2-(4-fluoro-3-methylphenoxy)acetamido]bicyclo[1.1.1]pentan-1-yl}-4-hydroxy-3,4-dihydro-2H-1-benzopyran-2-carboxamide] was 10 to 50 nM.
